Data published in ChEMBL document CHEMBL1201862, “PubChem BioAssay data set” (2004).
Calls of active or inactive are those of the source.

Assays:
[1] = target: T1, Delta-type opioid receptor (Homo sapiens, UniProt P41143); assay: HTS Image-Based Screen for Antagonists of the DOR Receptor. [Related pubchem assays (depositor defined):AID1777, AID1785, AID1786, AID2133]; format: functional
[2] = inhibitors of firefly luciferase expression or activity, dose response, H4 neuroglioma cells, luminescence (AID 1990); format: functional, cell-based
Mu-type opioid receptor = Mu-type opioid receptor (Homo sapiens, UniProt P35372); assay: HTS Image-Based Screen for Agonists of the MOR Receptor. [Related pubchem assays (depositor defined):AID1777, AID1785, AID1786, AID2133]; format: functional;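 further: imaging of beta-arrestin GFP recruitment into spots after receptor activation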
[3] = target: T1, Delta-type opioid receptor; assay: HTS Image-Based Screen for Agonists of the DOR Receptor. [Related pubchem assays (depositor defined):AID1777, AID1786, AID2133]; format: functional
BJ [4] = assay: cytotoxicity toward BJ-TERT fibroblasts, dose response, cell-based, RAS-independent, luminescence (AID 1933); format: functional; conditions: Homo sapiens
[5] = Luminescence Cell-Based Dose Response HTS to Identify Inhibitors of 5'UTR Stem-Loop Driven Prion Protein mRNA Translation in H4 Neuroglioblastoma Cells. [Related pubchem assays: 1827 (Project Summary), 1813 (Primary HTS)]; format: functional
[6] = inhibitors of SNCA 5'UTR-driven reporter translation, confirmation, H4 neuroglioma cells, luminescence (AID 1988); format: functional, cell-based
BJ [7] = assay: cells; format: functional, cell-based; conditions: Homo sapiens
[8] = target: T2, Kappa-type opioid receptor (Homo sapiens, UniProt P41145); format: functional
[9] = target: T2, Kappa-type opioid receptor; format: functional; remark: listed apart in the source
BJ [10] = assay: cytotoxicity toward BJ-TERT-LT-ST fibroblasts, dose response, cell-based, RAS-independent, luminescence (AID 1935); format: functional; conditions: Homo sapiens;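 further: BJ fibroblasts immortalized with TERT plus LT and ST oncogenes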
[11] = cytotoxicity toward DRD oncogenic fibroblasts, dose response, cell-based, non-viral oncogenic, luminescence (AID 1934); format: functional; conditions: Homo sapiens
[12] = THP-1 cell cytotoxicity, dose response, cytotoxicity control for non-replicating M. tuberculosis project (AID 489025); format: functional
[13] = HepG2 cell cytotoxicity, dose response, cytotoxicity control for non-replicating M. tuberculosis project (AID 489018); format: functional; conditions: Mycobacterium tuberculosis
[14] = Vero E6 cell cytotoxicity, dose response, cytotoxicity control for non-replicating M. tuberculosis project, secondary assay (AID 492998); format: functional, VeroE6; conditions: Vero C1008
cells [15] = format: functional
INS1 = assay: beta cell apoptosis inhibitors, cytokine rescue, dose response, luminescence, retest (AID 449756); format: functional, cell-based; conditions: Rattus norvegicus;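 further: cell death triggered by IL-1 beta plus TNF-alpha plus IFN-gamma mixture; protective hits raise ATP signal compared with cytokine alone wells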
[16] = target: 26S proteasome non-ATPase regulatory subunit 14 (Homo sapiens, UniProt O00487); assay: inhibition of proteasome subunit RPN11 – biochemical, fluorescence polarization, uHTS hits, confirmation (AID 602368); format: functional
[17] = target: 72 kDa type IV collagenase (Homo sapiens, UniProt P08253); assay: Dose Response validation of uHTS RPN11 inhibitor hits using a MMP-2 Fluorescence assay.; format: functional
Prothrombin = Prothrombin (Bos taurus, UniProt P00735); assay: thrombin inhibition, dose response, biochemical, fluorescence polarization, uHTS hits (AID 602369); format: functional
[18] = MDA-MB-231 cell growth inhibition, dose response, cytotoxicity control for RAD54 inhibitor project, CellTiter-Glo luminescence, cherry-pick (AID 651692); format: functional, cell-based
[19] = target: DNA repair and recombination protein RAD54-like (Homo sapiens, UniProt Q92698); assay: inhibitors of human RAD54 branch migration, confirmation, biochemical, fluorescence, cherry-picked samples, dose series (AID 651657); format: functional
[20] = Luminescence Cell-Based Dose Response HTS to Identify Inhibitors of Luciferase Translation or Activity in H4-C Neuroglioblastoma Cells. [Related pubchem assays: 1813 (Primary HTS), 1827 (Project Summary)]; format: functional
[21] = Luminescence Cell-Based Dose Response HTS to Identify Activators of Luciferase Translation or Activity in H4-C Neuroglioblastoma Cells. [Related pubchem assays: 1829 (Project Summary), 1814 (Primary HTS)]; format: functional
[22] = luciferase reporter signal reduction – luminescence, H4-C neuroglioblastoma cells, dose response (AID 2458); format: functional, cell-based;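 further: H4 neuroglioblastoma cells stably carrying a luciferase reporter gene fusion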
[23] = Luminescence Cell-Based Dose Retest to Confirm Activators of 5'UTR Stem-Loop Driven Alpha-Synuclein mRNA Translation in H4 Neuroglioblastoma Cells. [Related pubchem assays (depositor defined):AID1813, AID1829]; format: functional
[24] = Luminescence Cell-Based Dose Response HTS to Identify Activators of 5'UTR Stem-Loop Driven Prion Protein mRNA Translation in H4-C Neuroglioblastoma Cells. [Related pubchem assays: 1829 (Project Summary), 1814 (Primary HTS)]; format: functional
[25] = Luminescence Cell-Based Dose HTS Response to Identify Inhibitors of 5'UTR Stem-Loop Driven Prion Protein mRNA Translation in H4-C Neuroglioblastoma Cells. [Related pubchem assays (depositor defined):AID1814, AID1827]; format: functional
cells [26] = format: functional, cell-based
[27] = Luminescence Cell-Based Dose Confirmation HTS to Identify Inhibitors of 5'UTR Stem-Loop Driven Alpha-Synuclein mRNA Translation in H4 Neuroglioblastoma Cells. [Related pubchem assays: 1827 (Project Summary), 1813 (Primary HTS)]; format: functional
[28] = inhibitors of SNCA 5'UTR-driven translation, confirmation, luminescence, H4 neuroglioblastoma cells, dose confirmation (AID 2454); format: functional, cell-based;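 further: H4 neuroglioblastoma cells carrying an alpha-synuclein 5'UTR luciferase reporter; potency for inhibition of the luciferase signal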
[29] = target: T3, Tyrosine-protein phosphatase non-receptor type 7 (Homo sapiens, UniProt P35236); format: functional
T3 sequence (P35236 whole entry): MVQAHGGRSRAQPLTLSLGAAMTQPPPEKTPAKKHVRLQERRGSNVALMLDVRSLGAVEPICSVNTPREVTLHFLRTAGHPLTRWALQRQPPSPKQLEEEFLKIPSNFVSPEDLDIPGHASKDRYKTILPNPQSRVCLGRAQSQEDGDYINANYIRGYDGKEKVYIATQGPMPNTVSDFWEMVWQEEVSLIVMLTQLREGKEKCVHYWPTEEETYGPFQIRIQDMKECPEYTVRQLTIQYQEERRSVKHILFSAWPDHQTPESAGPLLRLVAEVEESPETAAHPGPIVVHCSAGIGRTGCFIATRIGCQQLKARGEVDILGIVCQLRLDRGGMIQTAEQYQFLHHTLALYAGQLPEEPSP

[30] = target: T4, Tyrosine-protein phosphatase non-receptor type 22 (Homo sapiens, UniProt Q9Y2R2); format: functional
T4 sequence (Q9Y2R2 whole entry): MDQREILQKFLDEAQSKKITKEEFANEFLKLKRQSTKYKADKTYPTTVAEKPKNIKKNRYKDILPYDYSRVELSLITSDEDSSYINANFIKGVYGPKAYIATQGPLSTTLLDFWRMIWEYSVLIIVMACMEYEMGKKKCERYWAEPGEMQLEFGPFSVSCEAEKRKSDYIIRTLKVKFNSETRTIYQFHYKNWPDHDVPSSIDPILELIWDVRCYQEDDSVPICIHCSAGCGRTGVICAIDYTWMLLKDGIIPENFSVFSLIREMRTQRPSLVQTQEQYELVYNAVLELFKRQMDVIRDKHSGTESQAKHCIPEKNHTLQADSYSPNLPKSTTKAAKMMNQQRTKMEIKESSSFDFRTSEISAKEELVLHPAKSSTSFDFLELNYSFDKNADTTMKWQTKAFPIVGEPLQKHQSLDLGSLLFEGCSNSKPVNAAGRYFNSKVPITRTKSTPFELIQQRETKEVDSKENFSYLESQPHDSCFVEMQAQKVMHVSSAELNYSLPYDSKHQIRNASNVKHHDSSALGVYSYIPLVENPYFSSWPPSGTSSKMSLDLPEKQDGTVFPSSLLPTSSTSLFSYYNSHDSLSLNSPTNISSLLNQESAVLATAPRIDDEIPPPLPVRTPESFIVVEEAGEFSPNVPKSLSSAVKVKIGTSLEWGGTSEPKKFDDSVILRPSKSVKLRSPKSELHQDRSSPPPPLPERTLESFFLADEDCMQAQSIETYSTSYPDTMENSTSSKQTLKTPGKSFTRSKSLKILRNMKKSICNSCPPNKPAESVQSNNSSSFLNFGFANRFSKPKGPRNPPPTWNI

[31] = target: T4, Tyrosine-protein phosphatase non-receptor type 22; format: functional; remark: listed apart in the source

T1 sequence (P41143 whole entry): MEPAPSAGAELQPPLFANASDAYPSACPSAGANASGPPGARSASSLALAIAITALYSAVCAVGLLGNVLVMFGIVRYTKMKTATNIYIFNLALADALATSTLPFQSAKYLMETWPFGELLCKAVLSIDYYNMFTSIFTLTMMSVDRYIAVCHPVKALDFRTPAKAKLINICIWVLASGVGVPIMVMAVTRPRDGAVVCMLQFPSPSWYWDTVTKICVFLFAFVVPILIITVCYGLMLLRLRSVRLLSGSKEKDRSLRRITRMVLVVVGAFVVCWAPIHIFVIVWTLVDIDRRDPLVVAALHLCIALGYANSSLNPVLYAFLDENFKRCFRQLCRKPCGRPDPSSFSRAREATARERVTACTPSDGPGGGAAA
T2 sequence (P41145 whole entry): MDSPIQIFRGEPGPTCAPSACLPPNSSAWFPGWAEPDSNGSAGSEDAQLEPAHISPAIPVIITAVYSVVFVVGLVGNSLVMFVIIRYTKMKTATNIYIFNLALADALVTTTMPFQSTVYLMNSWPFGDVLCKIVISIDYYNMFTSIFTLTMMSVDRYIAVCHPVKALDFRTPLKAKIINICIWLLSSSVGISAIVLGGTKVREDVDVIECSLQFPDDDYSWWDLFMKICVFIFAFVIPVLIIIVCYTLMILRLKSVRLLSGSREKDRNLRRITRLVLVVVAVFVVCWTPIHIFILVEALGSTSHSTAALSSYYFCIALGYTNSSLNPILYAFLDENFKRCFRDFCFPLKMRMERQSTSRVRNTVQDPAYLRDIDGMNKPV
72 kDa type IV collagenase, sequence (P08253 whole entry): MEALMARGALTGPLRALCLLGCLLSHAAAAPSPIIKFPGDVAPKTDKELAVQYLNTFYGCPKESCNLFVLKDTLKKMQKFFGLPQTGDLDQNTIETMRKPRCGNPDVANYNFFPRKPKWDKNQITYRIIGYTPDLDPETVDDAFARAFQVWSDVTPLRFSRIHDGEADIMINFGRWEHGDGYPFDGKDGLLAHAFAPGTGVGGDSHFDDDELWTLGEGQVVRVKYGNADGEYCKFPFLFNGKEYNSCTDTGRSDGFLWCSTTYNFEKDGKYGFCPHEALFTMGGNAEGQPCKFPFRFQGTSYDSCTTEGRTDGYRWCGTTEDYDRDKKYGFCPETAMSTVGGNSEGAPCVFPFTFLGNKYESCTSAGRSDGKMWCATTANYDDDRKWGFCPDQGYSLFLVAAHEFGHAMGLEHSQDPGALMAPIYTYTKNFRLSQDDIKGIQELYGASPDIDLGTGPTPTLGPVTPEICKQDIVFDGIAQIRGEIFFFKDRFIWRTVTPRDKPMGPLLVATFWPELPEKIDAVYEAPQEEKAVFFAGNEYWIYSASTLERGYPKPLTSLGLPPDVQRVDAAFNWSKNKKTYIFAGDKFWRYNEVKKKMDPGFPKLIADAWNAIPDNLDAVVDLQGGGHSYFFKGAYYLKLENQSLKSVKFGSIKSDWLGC
DNA repair and recombination protein RAD54-like, sequence (Q92698 whole entry): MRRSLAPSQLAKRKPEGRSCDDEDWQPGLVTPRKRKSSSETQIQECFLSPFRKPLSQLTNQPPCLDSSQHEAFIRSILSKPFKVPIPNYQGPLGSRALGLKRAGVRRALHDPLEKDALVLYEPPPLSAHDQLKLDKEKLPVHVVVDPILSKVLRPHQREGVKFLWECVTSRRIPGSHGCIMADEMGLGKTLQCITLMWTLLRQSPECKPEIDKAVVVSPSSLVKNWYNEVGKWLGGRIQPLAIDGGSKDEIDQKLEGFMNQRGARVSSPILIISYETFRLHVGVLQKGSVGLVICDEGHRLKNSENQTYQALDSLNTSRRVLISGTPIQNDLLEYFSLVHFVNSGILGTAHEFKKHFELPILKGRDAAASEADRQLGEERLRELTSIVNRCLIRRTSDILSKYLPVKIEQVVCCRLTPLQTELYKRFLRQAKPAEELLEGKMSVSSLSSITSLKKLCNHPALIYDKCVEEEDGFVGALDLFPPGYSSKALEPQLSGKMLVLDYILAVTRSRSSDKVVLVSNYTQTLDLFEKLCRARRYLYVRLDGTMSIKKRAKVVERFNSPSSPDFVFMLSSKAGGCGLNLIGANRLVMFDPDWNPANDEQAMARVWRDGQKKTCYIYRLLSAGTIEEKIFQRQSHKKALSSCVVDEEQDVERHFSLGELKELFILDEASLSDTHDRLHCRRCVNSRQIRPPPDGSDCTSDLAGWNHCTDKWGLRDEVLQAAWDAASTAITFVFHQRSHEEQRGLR
Mu-type opioid receptor, sequence (P35372 whole entry): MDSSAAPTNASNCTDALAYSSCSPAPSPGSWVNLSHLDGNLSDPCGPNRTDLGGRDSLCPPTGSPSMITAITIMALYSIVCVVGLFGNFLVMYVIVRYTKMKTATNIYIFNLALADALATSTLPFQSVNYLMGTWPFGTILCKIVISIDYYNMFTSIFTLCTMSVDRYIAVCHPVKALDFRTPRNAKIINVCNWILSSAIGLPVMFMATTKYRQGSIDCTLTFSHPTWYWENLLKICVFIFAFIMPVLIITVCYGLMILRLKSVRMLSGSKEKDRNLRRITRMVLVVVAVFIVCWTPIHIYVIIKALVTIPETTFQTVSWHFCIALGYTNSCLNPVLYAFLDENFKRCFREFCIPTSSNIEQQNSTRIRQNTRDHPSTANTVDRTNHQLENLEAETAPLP
26S proteasome non-ATPase regulatory subunit 14, sequence (O00487 whole entry): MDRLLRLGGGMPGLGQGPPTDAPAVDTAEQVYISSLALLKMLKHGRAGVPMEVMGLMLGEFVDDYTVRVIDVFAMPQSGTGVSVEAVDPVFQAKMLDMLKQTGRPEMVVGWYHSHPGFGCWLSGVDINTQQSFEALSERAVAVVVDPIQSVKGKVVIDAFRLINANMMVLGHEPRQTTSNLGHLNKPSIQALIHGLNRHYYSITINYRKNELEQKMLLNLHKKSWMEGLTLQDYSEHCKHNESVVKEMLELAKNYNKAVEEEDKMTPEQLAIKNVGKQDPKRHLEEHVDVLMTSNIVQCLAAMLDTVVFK

COc1cc2ccccc2cc1C(=O)Nc1sc2c(c1C(N)=O)CCN(C(C)C)C2
active: EC50 (BJ [4]) 6.33 µM | EC50 (BJ [7]) 13.6 µM | EC50 [11] 7.16 µM | CC50 [12] 11.6 µM | CC50 [13] 10.8 µM | CC50 [14] 4.6 µM | IC50 (cells [15]) 11.9 µM | AC50 (INS1) 7.78 µM | IC50 [16] 18.1 µM | IC50 (Prothrombin) 15.1 µM | AC50 [18] 16 µM | AC50 [19] 9.33 µM
2 µM: EC50 [8]
14.8 µM: EC50 [9]
inactive: IC50 [1] > 32 µM | EC50 (Mu-type opioid receptor) > 32 µM | EC50 [3] > 32 µM | IC50 [17] > 100 µM
inconclusive: EC50 (BJ [10]) 6.85 µM
> 120 µM (not active): EC50 [2] | EC50 [5] | EC50 [6]

O=C(c1ccc(C[S+]([O-])c2ccccc2Cl)o1)N1CCN(c2ccccc2)CC1 (stereo not given)
active: EC50 [20] 1.46 µM | EC50 [2] 8.01 µM | EC50 [22] 1.16 µM | EC50 [25] 0.464 µM | EC50 (BJ [4]) 1.18 µM | EC50 [6] < 0.1 µM | EC50 (BJ [7]) 25.9 µM | EC50 [27] 0.811 µM | EC50 (BJ [10]) 1.22 µM | EC50 [11] 0.614 µM | EC50 [28] 2.83 µM
inconclusive: EC50 [21] 1.46 µM | EC50 [23] 0.811 µM | EC50 [24] 0.464 µM
> 12 µM (not active): EC50 (cells [26])

Cc1cccnc1-n1c(C)nc2ccccc2c1=O
inactive: IC50 [29] > 79.4 µM | IC50 [30] > 79.4 µM | IC50 [31] > 79.4 µM
